This note sets out measurements from PubChem BioAssay (NCI).

Among the test systems are CAKI-1 renal; ACHN renal; MALME-3M melanoma; HCT-116 colon; HT29 colon; RPMI-8226 leukemia; HCT-15 colon; SK-MEL-28 melanoma; MOLT-4 leukemia; NCI/ADR-RES ovarian.
Common to all, as to experiment: growth of human tumour cells (NCI), 48 h

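The compound was tested at five concentrations on cells cultured in 96-well plates, with a 48-hour exposure period. Abbreviation: GI50, concentration required for 50% inhibition of growth. Definition used: TGI = concentration required for complete inhibition of growth.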

Consider `C=C1C(=O)OC2/C=C(\COC(C)=O)CCC(OC(C)=O)C3=CC(OC3=O)C12` (stereo not given), for which the TGI is 10.1 µM in the assay with CAKI-1 renal; 9.13 µM in the assay with ACHN renal; 4.41 µM in the assay with MALME-3M melanoma; 6.85 µM with HCT-116 colon; 15.8 µM in the assay on HT29 colon; more than 100 µM in the assay with RPMI-8226 leukemia. Besides, the TGI in the assay on HCT-15 colon worked out at 7.76 µM; in the assay with SK-MEL-28 melanoma, 11.6 µM; in the assay on MOLT-4 leukemia, 5.74 µM.

For `CC1=C(C(=O)Nc2ccc(F)c(Cl)c2)C(c2cccc(O)c2)NC(=O)N1` (stereo not given), the GI50 in the assay on CAKI-1 renal was more than 100 µM; with ACHN renal it was more than 100 µM; with HCT-116 colon, 70.7 µM; with NCI/ADR-RES ovarian it was more than 100 µM; in the assay on HT29 colon, 81.6 µM; with RPMI-8226 leukemia, 55.1 µM. For the same compound, the GI50 with HCT-15 colon was more than 100 µM; in the assay on SK-MEL-28 melanoma it was 58.9 µM. The TGI with CAKI-1 renal, with ACHN renal, in the assay with HCT-116 colon, in the assay with NCI/ADR-RES ovarian, with HT29 colon and in the assay with RPMI-8226 leukemia was more than 100 µM throughout. Besides, the TGI in the assay with HCT-15 colon and in the assay on SK-MEL-28 melanoma was more than 100 µM in each case.

`C1CCC([PH+](C2CCCCC2)C2CCCCC2[PH+](C2CCCCC2)C2CCCCC2)CC1.O=C(C1[CH-]CCCC1)C1CCCC[N-]1.[Au]` (stereo not given): the GI50 in the assay with CAKI-1 renal is 1.07 µM; in the assay with ACHN renal, 0.92 µM; in the assay on NCI/ADR-RES ovarian it was 1.8 µM. Also, the TGI in the assay on CAKI-1 renal was 2.72 µM; in the assay on ACHN renal, 2.12 µM; in the assay with NCI/ADR-RES ovarian it was more than 100 µM.

Regarding `CCCCCCCCCCCCCCCCCCOc1ccccc1CC(=O)OCC[N+]1(C)CCCC1`, the GI50 in the assay on CAKI-1 renal was 1.6 µM; in the assay with ACHN renal, 4 µM; with MALME-3M melanoma, 2.08 µM; in the assay on NCI/ADR-RES ovarian, 15.1 µM; in the assay on HCT-15 colon, 4.1 µM; in the assay on SK-MEL-28 melanoma, 2.72 µM. Besides, the GI50 with MOLT-4 leukemia was 2.12 µM. Further, the TGI is 4.05 µM in the assay with CAKI-1 renal; 16.4 µM in the assay on ACHN renal; 5.22 µM in the assay on MALME-3M melanoma; 42.4 µM in the assay on NCI/ADR-RES ovarian; 21 µM with HCT-15 colon; 7.86 µM with SK-MEL-28 melanoma. In addition, in the assay on MOLT-4 leukemia, the TGI worked out at 4.95 µM.

On to `CC1=C[C@H]2c3c(c(O)c(O)c4oc(-c5ccccc5)cc(=O)c34)[C@H](c3cc(O)c(O)c4oc(-c5ccccc5)cc(=O)c34)[C@H]2C(C)(C)C1`, for which the GI50 in the assay on CAKI-1 renal was 0.621 µM; in the assay with ACHN renal, 0.679 µM; in the assay with MALME-3M melanoma, 1.57 µM; in the assay on HCT-116 colon it was 0.272 µM; in the assay on NCI/ADR-RES ovarian, 3.55 µM; with HT29 colon it was 0.888 µM. Besides, the GI50 in the assay on HCT-15 colon was 1.82 µM; with SK-MEL-28 melanoma it was 1.12 µM; with MOLT-4 leukemia it was 0.988 µM. For the same compound, the TGI in the assay with CAKI-1 renal is 4.57 µM; with ACHN renal it was 5.67 µM; in the assay on MALME-3M melanoma, 7.76 µM; with HCT-116 colon, 1.45 µM; in the assay with NCI/ADR-RES ovarian, 25.3 µM; with HT29 colon it was more than 75 µM. The TGI in the assay on HCT-15 colon is 10.4 µM; in the assay with SK-MEL-28 melanoma it was 9.51 µM; in the assay on MOLT-4 leukemia it was more than 75 µM.

Regarding `COc1cc(NC(C)CCCN)c2nccc(C)c2c1` (stereo not given), the TGI with CAKI-1 renal was 56 µM; in the assay on ACHN renal, 74.6 µM; with MALME-3M melanoma, 35.6 µM; with HCT-116 colon it was 29.3 µM; in the assay with NCI/ADR-RES ovarian, more than 100 µM; in the assay on HT29 colon it was more than 100 µM. For the same compound, the TGI in the assay on RPMI-8226 leukemia came to 60.7 µM; in the assay on HCT-15 colon it was 49.7 µM; in the assay on SK-MEL-28 melanoma, 35.3 µM.

Regarding `CCCCCCCCCCCC(=O)OCC1OC(OC)C(NC(=O)N(CCCl)N=O)C(O)C1O` (stereo not given), the TGI is more than 100 µM in the assay with CAKI-1 renal; 35.6 µM with ACHN renal; 30.6 µM with MALME-3M melanoma; 29.2 µM with HCT-116 colon; 31.2 µM in the assay with HT29 colon; 29.6 µM in the assay with RPMI-8226 leukemia. Moreover, the figures for the TGI in the assay on HCT-15 colon, with SK-MEL-28 melanoma and in the assay on MOLT-4 leukemia were 96.1 µM, 35.6 µM and 16.1 µM, respectively.

With `N#Cc1cccnc1Cl`, the TGI with CAKI-1 renal, in the assay on ACHN renal, in the assay on MALME-3M melanoma, with HCT-116 colon, in the assay on HT29 colon and with RPMI-8226 leukemia was more than 100 µM in each case. Moreover, the TGI in the assay with HCT-15 colon, in the assay on SK-MEL-28 melanoma and with MOLT-4 leukemia was more than 100 µM in each case.

In the case of `O=C(NCO)NCOCn1c(=O)n(CO)c(=O)n(CO)c1=O`, the TGI was more than 100 µM in the assay on CAKI-1 renal; more than 100 µM in the assay with ACHN renal; more than 74 µM in the assay on MALME-3M melanoma; 96.2 µM with HCT-116 colon; 99.7 µM with HT29 colon; 68.4 µM with RPMI-8226 leukemia. For the same compound, the figures for the TGI in the assay on HCT-15 colon, in the assay with SK-MEL-28 melanoma and in the assay with MOLT-4 leukemia were 60.9 µM, 45.1 µM and more than 65.9 µM, respectively.

Consider `O=C(/C=C\c1ccc(NCc2ccc(C(=O)O)cc2)cc1)CCl`, for which the GI50 is 16.6 µM in the assay on CAKI-1 renal; 16.1 µM in the assay with ACHN renal; 2.5 µM in the assay with HCT-116 colon; 17.8 µM with NCI/ADR-RES ovarian; 18.9 µM in the assay on HT29 colon; 9.07 µM in the assay on RPMI-8226 leukemia. The GI50 was 3.35 µM with HCT-15 colon, 16.8 µM in the assay with SK-MEL-28 melanoma and 4.45 µM with MOLT-4 leukemia. The TGI in the assay on CAKI-1 renal is 32.8 µM; with ACHN renal it was 31.6 µM; with HCT-116 colon, 10.3 µM; in the assay with NCI/ADR-RES ovarian it was 39.6 µM; with HT29 colon, 37.8 µM; with RPMI-8226 leukemia, 35.3 µM. In addition, the TGI was determined as 12.7 µM in the assay with HCT-15 colon, 31.4 µM in the assay with SK-MEL-28 melanoma and 26.4 µM in the assay with MOLT-4 leukemia.

On to `C1C[OH+]CC[OH+]CC[OH+]CC[OH+]CC[OH+]1.[Cl-].[V]`, for which the GI50 with CAKI-1 renal was 82.2 µM; in the assay on ACHN renal, 75 µM; in the assay with MALME-3M melanoma, 13.4 µM; in the assay with HCT-116 colon, more than 100 µM; with HT29 colon it was more than 100 µM; with RPMI-8226 leukemia, more than 100 µM. The GI50 with HCT-15 colon was more than 100 µM; in the assay with SK-MEL-28 melanoma it was 25.1 µM; in the assay with MOLT-4 leukemia it was more than 100 µM. Also, the TGI in the assay on CAKI-1 renal was more than 100 µM; in the assay with ACHN renal, more than 100 µM; with MALME-3M melanoma, 32 µM; in the assay on HCT-116 colon, more than 100 µM; in the assay with HT29 colon, more than 100 µM; with RPMI-8226 leukemia, more than 100 µM. Besides, the TGI in the assay with HCT-15 colon, in the assay on SK-MEL-28 melanoma and with MOLT-4 leukemia was more than 100 µM in each case.
